Experiments:
[1] = molecular target: T1, human norepinephrine transporter (hNET) (Homo sapiens, UniProt P23975); assay: hNET scintillation proximity assay (SPA), competition with [3H]-Nisoxetine; assay type: binding; conditions: membranes of HEK-293 cells expressing recombinant hNET, Ki by Cheng-Prusoff
T1 construct: expressed in transfected cells; host or cells: HEK-293 (Clone: HEK-hNET #2)
Procedure: Screening for Compounds Active at Human Norepinephrine Transporter (HNET) Using a Scintillation Proximity Assay (SPA)
This assay was used to determine the affinity of ligands for the hNET transporter by competition with [^3H]-Nisoxetine. As in the hSERT assay of the above example, receptor-containing membranes were pre-coupled to the SPA beads and the binding of the appropriate radioligand to the transporter was measured. The light emission was proportional to the amount of bound radioligand, with unbound radioligand producing no signal. […]
Cell membranes were prepared using a membrane preparation buffer of 50 mM TRIS (pH 7.4). […] After a second centrifugation, the pellet was re-homogenized and brought to a final volume determined during the assay. […]
^3[H] […] The mixtures were allowed to stand at room temperature for one hour, and were then counted on a Packard TopCount LCS, a generic SPA counting protocol settings (Energy Range: Low, Efficiency Mode: Normal, Region A: 1.50-35.00, Region B: 1.50-256.00, Count Time (min.): 0.40, Background Subtract: none, Half-Life Correction: no, Quench Indicator: tSIS, Platemap blank subtraction: No, Cross talk reduction: Off).
(§1) The % inhibition was calculated for each compound tested [(Compound CPM at maximum concentration-Non-Specific CPM)/Total CPM*100]. […]

[2] = molecular target: T2, human dopamine transporter (hDAT) (Homo sapiens, UniProt Q01959); assay: hDAT scintillation proximity assay (SPA), competition with [3H]-Vanoxerine; assay type: binding; conditions: HEK-293 cells expressing recombinant hDAT, Ki by Cheng-Prusoff
T2 construct: expressed in transfected cells; host or cells: HEK-293
T2 sequence (Q01959 whole entry): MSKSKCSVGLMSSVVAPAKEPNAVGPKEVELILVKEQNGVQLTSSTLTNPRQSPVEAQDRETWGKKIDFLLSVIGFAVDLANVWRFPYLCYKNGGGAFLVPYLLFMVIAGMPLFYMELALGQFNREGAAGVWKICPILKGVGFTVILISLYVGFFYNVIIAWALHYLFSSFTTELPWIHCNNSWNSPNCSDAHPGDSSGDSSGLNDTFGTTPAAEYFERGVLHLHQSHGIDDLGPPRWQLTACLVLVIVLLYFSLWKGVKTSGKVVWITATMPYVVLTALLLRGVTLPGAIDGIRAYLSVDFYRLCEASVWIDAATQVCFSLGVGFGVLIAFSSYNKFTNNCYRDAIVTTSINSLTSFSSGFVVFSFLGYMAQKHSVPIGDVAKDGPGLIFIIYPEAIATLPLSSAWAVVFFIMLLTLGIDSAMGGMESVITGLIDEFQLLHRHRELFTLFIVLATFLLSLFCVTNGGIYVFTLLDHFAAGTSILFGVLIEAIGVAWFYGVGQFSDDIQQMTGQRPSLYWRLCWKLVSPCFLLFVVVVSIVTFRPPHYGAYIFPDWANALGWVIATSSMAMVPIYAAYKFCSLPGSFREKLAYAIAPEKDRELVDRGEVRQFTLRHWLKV
Procedure: Screening for Compounds Active at Human Dopamine Transporter Using a Scintillation Proximity Assay (SPA)
This assay was used to determine the affinity of ligands for the dopamine transporter by competition with [^3H]-Vanoxerine.
HEK-293 cells (Tatsumi et al., Eur. J. Pharmacol. 1997, 30, 249-258) stably expressing recombinant hDAT were maintained with media (DMEM hi glucose with 10% FBS, 300 μg/ml G418 and 2 mM L-Glutamine) and incubated at 37° C. with 5% CO2. Cells were plated four hours prior to experiment by placing approximately 30,000 cells per well (in PBS) on white, opaque Cell-Tak coated 96 well plates. Extra buffer was apriated from the cell plates using an ELx405 plate washer.
^3[H] vanoxerine (GBR 12909) radioligand, specific activity approximately 59 Ci/mmol, stock concentration, 400 nM, and 50 mM Tris-HCl, 300 mM NaCl, (pH 7.4) buffers were used for Scintillation Proximity Assay IC50/Ki determination. […]
as §1
[formula] where max=total binding, min=non specific binding, x=concentration (M) of the tested compound and n=Hill slope. The inhibition dissociation constant (Ki) of each compound was determined according to the method of Cheng-Prusoff and then converted into negative logarithm (pKi) of the Ki.

T1 sequence (P23975 whole entry): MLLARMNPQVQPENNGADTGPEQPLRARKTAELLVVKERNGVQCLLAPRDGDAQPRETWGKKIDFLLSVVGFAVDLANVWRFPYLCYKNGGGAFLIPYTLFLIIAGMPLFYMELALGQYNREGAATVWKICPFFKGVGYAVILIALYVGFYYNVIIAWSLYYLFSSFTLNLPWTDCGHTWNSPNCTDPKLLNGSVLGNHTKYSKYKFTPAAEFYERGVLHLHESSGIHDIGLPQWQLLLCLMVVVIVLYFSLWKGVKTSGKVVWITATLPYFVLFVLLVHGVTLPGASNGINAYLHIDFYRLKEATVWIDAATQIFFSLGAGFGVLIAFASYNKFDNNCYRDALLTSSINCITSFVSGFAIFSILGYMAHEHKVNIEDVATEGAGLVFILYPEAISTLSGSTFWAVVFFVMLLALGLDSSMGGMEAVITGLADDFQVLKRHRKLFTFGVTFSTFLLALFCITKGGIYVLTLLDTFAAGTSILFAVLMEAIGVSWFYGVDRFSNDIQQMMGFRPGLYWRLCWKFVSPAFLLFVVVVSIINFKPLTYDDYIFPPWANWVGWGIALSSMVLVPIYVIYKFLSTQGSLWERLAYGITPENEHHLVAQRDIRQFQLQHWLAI

SMILES | Ki [1] [nM] | Ki [2] [nM]
c1ccc(OCC2CNCCN2c2ccc3[nH]ncc3c2)cc1 (centres unmarked) [5-(2-Phenoxymethyl-piperazin-1-yl)-1H-indazole] | ~6.31 | 
c1cc2[nH]ncc2cc1N1CCNC[C@H]1CCC1CC1 [5-[(R)-2-(2-Cyclopropyl-ethyl)-piperazin-1-yl]-1H-indazole] |  | ~12.6

Source: US7998963B2, “Arylpiperazine derivatives and uses thereof” (Roche Palo Alto LLC, priority 2008, dated 2011)
